Patent US20260295053A1, “COMPOUNDS FOR DEGRADATION AND INHIBITION OF KRAS (G12D) PROTEIN” (Shenzhen Ionova Life Science Co., Ltd., priority 2023, published 2026)

Tests used:
KRAS (G12D) = target: T1, KRAS (G12D) (Homo sapiens, UniProt P01116, G12D); assay: KRAS (G12D) cellular degradation assay in AsPC-1 cells; type: cell-based; conditions: 24 hours, antibody fluorescence (Odyssey CLX), DC50 half-maximal degradation concentration
T1 construct: in-cell western with KRAS G12D antibody after 24 h
In short: (§1)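 Half-maximal degradation (DC50) and inhibition (IC50) concentrations are fitted from dose-response curves spanning […] to 1.5 nM final. KRAS G12D loss is measured by fluorescent antibody staining with β-actin reference after 24 h; growth is measured by ATP luminescence after a 6-day exposure.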

AsPC-1 cells = assay: AsPC-1 cell proliferation assay (CellTiter Glo); type: cell-based; conditions: Homo sapiens, ASPC1, 144 h, 6 days
In short: as §1

T1 sequence (P01116 1-188 isoform P01116-2 G12D): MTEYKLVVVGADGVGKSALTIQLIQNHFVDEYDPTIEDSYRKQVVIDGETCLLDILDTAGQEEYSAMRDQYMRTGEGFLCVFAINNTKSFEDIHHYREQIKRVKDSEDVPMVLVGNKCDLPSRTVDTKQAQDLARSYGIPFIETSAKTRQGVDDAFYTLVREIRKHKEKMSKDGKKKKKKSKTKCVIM

Structure (SMILES)	DC50 (KRAS (G12D)) [nM]	IC50 (AsPC-1 cells) [nM]
CCn1nccc1-c1ccc([C@H](CO)NC(=O)[C@@H]2C[C@@H](O)CN2C(=O)[C@H](C(C)C)n2cc(-c3ccc(COc4c(-c5c(C)c(F)c(F)c6[nH]ncc56)c(C5CC5)cc5c(N6C[C@@H]7C[C@H]6CN7)nc(OC[C@H](C)OC)nc45)cc3)nn2)cc1 [Example 57, (2S,4R)-1-((2S)-2-(4-(4-(((4-((1S,4S)-2,5-diazabicyclo[2.2.1]heptan-2-yl)-6-cyclopropyl-7-(6,7-difluoro-5-methyl-1H-indazol-4-yl)-2-((S)-2-methoxypropoxy)quinazolin-8-yl)oxy)methyl)phenyl)-1H-1,2,3-triazol-1-yl)-3-methylbutanoyl)-N—((R)-1-(4-(1-ethyl-1H-pyrazol-5-yl)phenyl)-2-hydroxyethyl)-4-hydroxypyrrolidine-2-carboxamide]	< 10	< 10
CCn1nccc1-c1ccc([C@@H](NC(=O)[C@@H]2C[C@@H](O)CN2C(=O)[C@H](C(C)C)n2cc(-c3ccc(COc4c(-c5c(C)c(F)cc6[nH]ncc56)c(C5CCC5)cc5c(N6C[C@@H]7C[C@H]6CN7)nc(OC[C@H](C)OC)nc45)cc3)nn2)[C@@H](C)O)cc1 [Example 128, (2S,4R)-1-((2S)-2-(4-(4-(((4-((1S,4S)-2,5-diazabicyclo[2.2.1]heptan-2-yl)-6-cyclobutyl-7-(6-fluoro-5-methyl-1H-indazol-4-yl)-2-((S)-2-methoxypropoxy)quinazolin-8-yl)oxy)methyl)phenyl)-1H-1,2,3-triazol-1-yl)-3-methylbutanoyl)-N-((1R,2R)-1-(4-(1-ethyl-1H-pyrazol-5-yl)phenyl)-2-hydroxypropyl)-4-hydroxypyrrolidine-2-carboxamide]	10 to 100	< 10
CCn1nccc1-c1ccc([C@@H](NC(=O)[C@@H]2C[C@@H](O)CN2C(=O)[C@H](C(C)C)n2cc(-c3ccc(COc4c(-c5c(C)c(F)cc6[nH]ncc56)c(C5CC5)cc5c(N(C)[C@H]6CCNC6)nc(OC[C@H](C)OC)nc45)cc3)nn2)[C@H](C)O)c2c1CC2 [Example 149, (2S,4R)-1-((2S)-2-(4-(4-(((6-cyclopropyl-7-(6-fluoro-5-methyl-1H-indazol-4-yl)-2-((S)-2-methoxypropoxy)-4-(methyl((S)-pyrrolidin-3-yl)amino)quinazolin-8-yl)oxy)methyl)phenyl)-1H-1,2,3-triazol-1-yl)-3-methylbutanoyl)-N-((1R,2S)-1-(5-(1-ethyl-1H-pyrazol-5-yl)bicyclo[4.2.0]octa-1(6),2,4-trien-2-yl)-2-hydroxypropyl)-4-hydroxypyrrolidine-2-carboxamide]	< 10	< 10
CCn1nccc1-c1ccc([C@H](CO)NC(=O)[C@@H]2C[C@@H](O)CN2C(=O)[C@H](C(C)C)n2cc(-c3ccc(COc4c(-c5c(C)c(F)cc6[nH]ncc56)c(C5CC5)cc5c(N(C)[C@H]6[C@@H]7CN[C@H]6C7)nc(OC[C@H](C)OC)nc45)cc3)nn2)cc1 [Example 197, (2S,4R)-1-((2S)-2-(4-(4-(((4-(((1S,4S,5S)-2-azabicyclo[2.1.1]hexan-5-yl)(methyl)amino)-6-cyclopropyl-7-(6-fluoro-5-methyl-1H-indazol-4-yl)-2-((S)-2-methoxypropoxy)quinazolin-8-yl)oxy)methyl)phenyl)-1H-1,2,3-triazol-1-yl)-3-methylbutanoyl)-N—((R)-1-(4-(1-ethyl-1H-pyrazol-5-yl)phenyl)-2-hydroxyethyl)-4-hydroxypyrrolidine-2-carboxamide]	< 10	< 10
CCn1nccc1-c1ccc([C@@H](NC(=O)[C@@H]2C[C@@H](O)CN2C(=O)[C@H](C(C)C)n2cc(-c3ccc(COc4c(-c5c(C)c(F)cc6[nH]ncc56)c(C5CC5)cc5c(N6C[C@@H]7C[C@H]6CN7)nc(OC6CCC7(CC6)COC7)nc45)cc3)nn2)[C@H](C)O)cc1 [Example 87, (2S,4R)-1-((2S)-2-(4-(4-(((2-((2-oxaspiro[3.5]nonan-7-yl)oxy)-4-((1S,4S)-2,5-diazabicyclo[2.2.1]heptan-2-yl)-6-cyclopropyl-7-(6-fluoro-5-methyl-1H-indazol-4-yl)quinazolin-8-yl)oxy)methyl)phenyl)-1H-1,2,3-triazol-1-yl)-3-methylbutanoyl)-N-((1R,2S)-1-(4-(1-ethyl-1H-pyrazol-5-yl)phenyl)-2-hydroxypropyl)-4-hydroxypyrrolidine-2-carboxamide]	< 10	< 10

Now from value to molecule:

DC50 (KRAS (G12D)) [nM]	IC50 (AsPC-1 cells) [nM]	Structure (SMILES)
< 10	< 10	CCn1nccc1-c1ccc([C@H](CO)NC(=O)[C@@H]2C[C@@H](O)CN2C(=O)[C@H](C(C)C)n2cc(-c3ccc(COc4c(-c5c(C)c(F)cc6[nH]ncc56)c(C5CC5)cc5c(N6C[C@@H]7C[C@H]6CN7)nc(OCC6(CC(F)F)CC6)nc45)cc3)nn2)cc1 [Example 62, (2S,4R)-1-((2S)-2-(4-(4-(((4-((1S,4S)-2,5-diazabicyclo[2.2.1]heptan-2-yl)-6-cyclopropyl-2-((1-(2,2-difluoroethyl)cyclopropyl)methoxy)-7-(6-fluoro-5-methyl-1H-indazol-4-yl)quinazolin-8-yl)oxy)methyl)phenyl)-1H-1,2,3-triazol-1-yl)-3-methylbutanoyl)-N—((R)-1-(4-(1-ethyl-1H-pyrazol-5-yl)phenyl)-2-hydroxyethyl)-4-hydroxypyrrolidine-2-carboxamide]
< 10	< 10	CCn1nccc1-c1ccc([C@H](CO)NC(=O)[C@@H]2C[C@@H](O)CN2C(=O)[C@H](C(C)C)n2cc(-c3ccc(COc4c(-c5c(C)c(F)cc6[nH]ncc56)c(C5CC5)cc5c(N(C)C[C@H]6CCNC6)nc(OC[C@H](C)OC)nc45)cc3)nn2)cc1 [Example 206, (2S,4R)-1-((2S)-2-(4-(4-(((6-cyclopropyl-7-(6-fluoro-5-methyl-1H-indazol-4-yl)-2-((S)-2-methoxypropoxy)-4-(methyl(((S)-pyrrolidin-3-yl)methyl)amino)quinazolin-8-yl)oxy)methyl)phenyl)-1H-1,2,3-triazol-1-yl)-3-methylbutanoyl)-N—((R)-1-(4-(1-ethyl-1H-pyrazol-5-yl)phenyl)-2-hydroxyethyl)-4-hydroxypyrrolidine-2-carboxamide]
< 10	< 10	CCn1nccc1-c1ccc([C@H](CO)NC(=O)[C@@H]2C[C@@H](O)CN2C(=O)[C@H](C(C)C)n2cc(-c3ccc(COc4c(-c5c(C)c(F)cc6[nH]ncc56)c(C5CC5)cc5c(N(C)[C@@H]6CCNC6)nc(OC[C@H](C)OC)nc45)cc3)nn2)c2c1CC2 [Example 192, (2S,4R)-1-((2S)-2-(4-(4-(((6-cyclopropyl-7-(6-fluoro-5-methyl-1H-indazol-4-yl)-2-((S)-2-methoxypropoxy)-4-(methyl((R)-pyrrolidin-3-yl)amino)quinazolin-8-yl)oxy)methyl)phenyl)-1H-1,2,3-triazol-1-yl)-3-methylbutanoyl)-N—((R)-1-(5-(1-ethyl-1H-pyrazol-5-yl)bicyclo[4.2.0]octa-1(6),2,4-trien-2-yl)-2-hydroxyethyl)-4-hydroxypyrrolidine-2-carboxamide]
